Holding throughout (type): binding
Test [1] concerns the target T1, human HER2 (23-652) (Homo sapiens, UniProt P04626). Description: TR-FRET competition assay for peptide potency, human HER2. On the set-up: towards human HER2 (23-652) and mouse HER2 (23-653); made in house; host or cells: mammalian cells. A general note: TR-FRET usually uses a lanthanide donor and a delayed reading to cut background.
Test [2] concerns the target T1, human HER2 (23-652). As to the kind of experiment: Surface plasmon resonance (SPR) for assessment of peptide affinity, human HER2. On the set-up: towards human HER2 (23-652) and mouse HER2 (23-653); made in house. As to conditions: SPR, human HER2 extracellular domain, 25° C., 1:1 binding model; read-out: huHER2-SPR-ONC KD. A digest of the protocol:
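Binding kinetics fitted from sensorgrams with 280 s peptide association then 3000 s dissociation (30 uL/min), using HER2 (23-652) either directly immobilized (SA/CM5) or anti-Fc-captured; 3 M magnesium chloride used for regeneration.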
On the technique in general: Surface plasmon resonance follows binding to a sensor surface in real time, without labels.

The target of test [3] is T2, mouse HER2 (23-653) (Mus musculus, UniProt P70424). As to the kind of experiment: Surface plasmon resonance (SPR) for assessment of peptide affinity, mouse HER2. More on the design: mouse HER2 (23-653) using a Cy5 labeled peptide as a probe; made in house. The following applies: SPR, mouse HER2 extracellular domain, 25° C., 1:1 binding model; read-out: moHER2-SPR-ONC KD. The source says:
Each protein was immobilized either onto a SA sensorchip (Cytiva, BR-1005-31) or CM5 sensorchip (Cytiva, BR-1005-30) to a density of 800-2000 RU.

Test [4] has as its target T2, mouse HER2 (23-653). Description: TR-FRET competition assay for peptide potency, mouse HER2. More on the design: mouse HER2 (23-653) using a Cy5 labeled peptide as a probe; made in house; host or cells: mammalian cells.
Where [5] appears, read: TR-FRET competition with Cy5 labeled peptide probe, 0.1 nM human HER2, 24 h incubation, read-out: huHER2 TR-FRET IC50.
[6] abbreviates: TR-FRET competition with Cy5 labeled peptide probe, 0.1 nM mouse HER2, 24 h incubation, read-out: moHER2 TR-FRET IC50.

Counter-ions that a name gives are not always drawn. Like-named read-outs stand apart in the source and are kept apart here. Starred links: 1 amine or outer side, 2 acyl side, 3 side chain; linkers in the order of their positions; H or OH if unused. Positions of bridges follow the written chain, without caps; N, C: chain ends. Non-standard residues stand in square brackets, D forms with d. Residues, ends and D or L forms follow the SMILES beside them. Trp(5-OH) = N[C@@H](Cc1c[nH]c2ccc(O)cc12)C(=O)O; NMePhe(4-F) = CN[C@@H](Cc1ccc(F)cc1)C(=O)O; isoSer(2S) = O=C([C@@H](O)CN[*:1])[*:2]; NMehPhe = CN[C@@H](CCc1ccccc1)C(=O)O; NMeE = CN[C@@H](CCC(=O)O)C(=O)O; Aad = N[C@@H](CCCC(=O)O)C(=O)O; Gly(cPr) = N[C@H](C(=O)O)C1CC1; NMeK = CN[C@@H](CCCCN)C(=O)O; NMeDap = CN[C@@H](CN)C(=O)O; NMeS = CN[C@@H](CO)C(=O)O

As for `CC(=O)NCCCC[C@H]1C(=O)N[C@@H](Cc2c[nH]c3ccc(O)cc23)C(=O)N[C@@H](Cc2c[nH]c3ccccc23)C(=O)N[C@@H]([C@H](C)O)C(=O)N(C)[C@H](C(=O)N(C)[C@@H](Cc2ccc(F)cc2)C(=O)N[C@@H](CCCCNC(=O)N2CCN(CC(=O)O)CC2)C(=O)N[C@H](CCCCNC(=O)CN2CCN(CC(=O)O)CCN(CC(=O)O)CCN(CC(=O)O)CC2)C(N)=O)CNC(=O)CC[C@H](NC(C)=O)C(=O)N[C@@H](Cc2ccc(O)cc2)C(=O)N[C@@H](CO)C(=O)N(C)[C@@H](CCc2ccccc2)C(=O)N1C` [Example C23], the concentration for half-maximal inhibition (IC50) (as a rule, the concentration at which inhibition is half-maximal) on human HER2 (23-652) [1] (setting [5]) was 62 nM; at mouse HER2 (23-653) [4] (setting [6]), 76 nM; at mouse HER2 (23-653) [4] (value in parentheses (**): recalculated after further repetition, read-out: moHER2 TR-FRET IC50, recalculated value achieved after further repetition), 49 nM. The figures for the Kd at human HER2 (23-652) [2] and on mouse HER2 (23-653) [3] were 47 nM and 39 nM, respectively.

Consider `CC(=O)NCCCC[C@H]1C(=O)N[C@@H](Cc2c[nH]c3ccc(O)cc23)C(=O)N[C@@H](C)C(=O)N[C@@H](C2CC2)C(=O)N(C)[C@H](C(=O)N(C)[C@@H](Cc2ccc(F)cc2)C(=O)N[C@@H](CCCCN)C(N)=O)CNC(=O)CCC[C@H](NC(C)=O)C(=O)N[C@@H](Cc2ccc(O)cc2)C(=O)N[C@@H](CO)C(=O)N(C)[C@@H](CCc2ccccc2)C(=O)N1C` [Example A45, (3S,6S,9S,12S,15S,18S,21S,24S,27S)-27-acetamido-15-(4-acetamidobutyl)-6-cyclopropyl-N-((S)-1-(((S)-1,6-diamino-1-oxohexan-2-y1)amino)-3-(4-fluorophenyl)-1-oxopropan-2-y1)-12-((5-hydroxy-1H-indol-3-yl)methyl)-24-(4-hydroxybenzyl)-21-(hydroxymethyl)-N,4,9,16,19-pentamethyl-5,8,11,14,17,20,23,26,31-nonaoxo-18-phenethyl-1,4,7,10,13,16,19,22,25-nonaazacyclohentriacontane-3-carboxamide TFA salt] (Ac-[Aad]YS[NMehPhe][NMeK](Ac)[Trp(5-OH)]A[Gly(cPr)][NMeDap][NMePhe(4-F)]K-NH2; lactam 1-9), for which the IC50 at human HER2 (23-652) [1] (read-out: huHER2 TR-FRET IC50) was greater than 900 nM; at mouse HER2 (23-653) [4] (setting [6]) it was greater than 1000 nM. The Kd at human HER2 (23-652) [2] and at mouse HER2 (23-653) [3] was greater than 6000 nM each time.

Regarding `CC(=O)N[C@H]1CC(=O)NC[C@@H](C(=O)N(C)[C@@H](Cc2ccc(F)cc2)C(N)=O)N(C)C(=O)[C@H](C2CC2)NC(=O)[C@H](Cc2c[nH]c3ccccc23)NC(=O)[C@H](Cc2c[nH]c3ccc(O)cc23)NC(=O)[C@H](CO)N(C)C(=O)[C@H](CCc2ccccc2)N(C)C(=O)[C@H](CO)NC(=O)[C@H](Cc2ccc(O)cc2)NC1=O` [Example A28, (3S,6S,9S,12S,15S,18S,21S,24S,27S)-9-((1H-indol-3-yl)methyl)-27-acetamido-N-((S)-1-amino-3-(4-fluorophenyl)-1-oxopropan-2-yl)-6-cyclopropyl-12-((5-hydroxy-1H-indol-3-yl)methyl)-24-(4-hydroxybenzyl)-15,21-bis(hydroxymethyl)-N,4,16,19-tetramethyl-5,8,11,14,17,20,23,26,29-nonaoxo-18-phenethyl-1,4,7,10,13,16,19,22,25-nonaazacyclononacosane-3-carboxamide] (Ac-DYS[NMehPhe][NMeS][Trp(5-OH)]W[Gly(cPr)][NMeDap][NMePhe(4-F)]-NH2; lactam 1-9), the IC50 at human HER2 (23-652) [1] (read-out: huHER2 TR-FRET IC50) turned out to be 223 nM; at mouse HER2 (23-653) [4] (setting [6]) it was 413 nM. Also, the Kd (as a rule, the free concentration of one partner at which half of the binding sites on the other are occupied at equilibrium, for simple one-to-one binding) on human HER2 (23-652) [2] is 309 nM; at mouse HER2 (23-653) [3] it was 421 nM.

On to `CC(=O)NCCCC[C@H]1C(=O)N[C@@H](Cc2c[nH]c3ccc(O)cc23)C(=O)N[C@@H](Cc2c[nH]c3ccccc23)C(=O)N[C@@H](C2CC2)C(=O)N(C)[C@H](C(=O)N(C)[C@@H](Cc2ccc(F)cc2)C(N)=O)CCC(=O)NC[C@H](O)C(=O)N[C@@H](Cc2ccc(O)cc2)C(=O)N[C@@H](CO)C(=O)N(C)[C@@H](CCc2ccccc2)C(=O)N1C` [Example A23, (3S,6S,9S,12S,15S,18S,21S,24S,30S)-6-((1H-indol-3-yl)methyl)-12-(4-acetamidobutyl)-N-((S)-1-amino-3-(4-fluorophenyl)-1-oxopropan-2-yl)-3-cyclopropyl-24-hydroxy-9-((5-hydroxy-1H-indol-3-yl)methyl)-21-(4-hydroxybenzyl)-18-(hydroxymethyl)-N,1,13,16-tetramethyl-2,5,8,11,14,17,20,23,27-nonaoxo-15-phenethyl-1,4,7,10,13,16,19,22,26-nonaazacyclotriacontane-30-carboxamide] ([isoSer(2S)]YS[NMehPhe][NMeK](Ac)[Trp(5-OH)]W[Gly(cPr)][NMeE][NMePhe(4-F)]-NH2; lactam N-9), for which the IC50 on human HER2 (23-652) [1] (read-out: huHER2 TR-FRET IC50) came to 3 nM; on mouse HER2 (23-653) [4] (setting [6]) it was 5.5 nM. For the same compound, on mouse HER2 (23-653) [3], the Kd amounted to 2.7 nM.

Consider `CC(=O)NCCCC[C@H]1C(=O)N[C@@H](Cc2c[nH]c3ccc(O)cc23)C(=O)N[C@@H](Cc2c[nH]c3ccccc23)C(=O)N[C@@H](C2CC2)C(=O)N(C)[C@H](C(=O)N(C)[C@@H](Cc2ccc(F)cc2)C(=O)N[C@@H](CCCCNC(=O)CCC(C(=O)O)N2CCN(CC(=O)O)CCN(CC(=O)O)CC2)C(N)=O)CNC(=O)CCC[C@H](NC(C)=O)C(=O)N[C@@H](Cc2ccc(O)cc2)C(=O)N[C@@H](CO)C(=O)N(C)[C@@H](CCc2ccccc2)C(=O)N1C` (single isomer, unassigned) [Example C35], for which the IC50 on human HER2 (23-652) [1] (setting [5]) was less than 0.1 nM. In addition, the Kd at human HER2 (23-652) [2] and at mouse HER2 (23-653) [3] was less than 0.1 nM throughout.

On to `CC(=O)NCCCC[C@H]1C(=O)N[C@@H](Cc2c[nH]c3ccc(O)cc23)C(=O)N[C@@H](Cc2c[nH]c3ccccc23)C(=O)N[C@@H]([C@H](C)O)C(=O)N(C)[C@H](C(=O)N(C)[C@@H](Cc2ccc(F)cc2)C(=O)N[C@@H](CCCCNC(=O)N2CCN(CC(=O)O)CC2)C(=O)N[C@@H](CCCCNC(=O)CN2CCN(CC(=O)O)CCN(CC(=O)O)CCN(CC(=O)O)CC2)C(N)=O)CNC(=O)CC[C@H](NC(C)=O)C(=O)N[C@@H](Cc2ccc(O)cc2)C(=O)N[C@@H](CO)C(=O)N(C)[C@@H](CCc2ccccc2)C(=O)N1C` [Example C24], for which the IC50 on human HER2 (23-652) [1] (setting [5]) is 13 nM; at human HER2 (23-652) [1] (value in parentheses (**): recalculated after further repetition, read-out: huHER2 TR-FRET IC50, recalculated value achieved after further repetition), 11 nM; at mouse HER2 (23-653) [4] (setting [6]), 13 nM. Besides, at mouse HER2 (23-653) [3], the Kd was 9.3 nM.

For `COCCOCCOCCOCCOCCOCCOCCOCCOCCOCCOCCOCCC(=O)N[C@H]1CCCC(=O)NC[C@@H](C(=O)N(C)[C@@H](Cc2ccc(F)cc2)C(=O)N[C@@H](CCCCNC(=O)CN2CCN(CC(=O)O)CCN(CC(=O)O)CCN(CC(=O)O)CC2)C(N)=O)N(C)C(=O)[C@H](C2CC2)NC(=O)[C@H](Cc2c[nH]c3ccccc23)NC(=O)[C@H](Cc2c[nH]c3ccc(O)cc23)NC(=O)[C@H](CCCCNC(C)=O)N(C)C(=O)[C@H](CCc2ccccc2)N(C)C(=O)[C@H](CO)NC(=O)[C@H](Cc2ccc(O)cc2)NC1=O` [Example C37], the IC50 was 0.1 nM on human HER2 (23-652) [1] (setting [5]) and 0.4 nM on mouse HER2 (23-653) [4] (setting [6]). Also, the Kd on mouse HER2 (23-653) [3] worked out at 0.3 nM.

Consider `CC(=O)N[C@H]1CCC(=O)NC[C@@H](C(=O)N(C)[C@@H](Cc2ccc(F)cc2)C(N)=O)N(C)C(=O)[C@H](C2CC2)NC(=O)[C@H](Cc2c[nH]c3ccccc23)NC(=O)[C@H](Cc2c[nH]c3ccc(O)cc23)NC(=O)[C@H](CO)N(C)C(=O)[C@H](CCc2ccccc2)N(C)C(=O)[C@H](CO)NC(=O)[C@H](Cc2ccc(O)cc2)NC1=O` [Example A25, (3S,6S,9S,12S,15S,18S,21S,24S,27S)-9-((1H-indol-3-yl)methyl)-27-acetamido-N—((S)-1-amino-3-(4-fluorophenyl)-1-oxopropan-2-yl)-6-cyclopropyl-12-((5-hydroxy-1H-indol-3-yl)methyl)-24-(4-hydroxybenzyl)-15,21-bis(hydroxymethyl)-N,4,16,19-tetramethyl-5,8,11,14,17,20,23,26,30-nonaoxo-18-phenethyl-1,4,7,10,13,16,19,22,25-nonaazacyclotriacontane-3-carboxamide], for which the IC50 on human HER2 (23-652) [1] (read-out: huHER2 TR-FRET IC50) turned out to be 82 nM; on mouse HER2 (23-653) [4] (setting [6]), 162 nM. The Kd on mouse HER2 (23-653) [3] is 93 nM.

Source of the values: patent US20250332300A1 (priority 2024, published 2025).
